Peptide text beside a SMILES is read from it.
Key:
[1] = tested on: E. faecium (NTCC 12697); test: microbe, parasite or virus in culture; assay type: cell-based; conditions: NTCC 12697, 18 h
In short: (§1)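 Bacteria grown overnight at 37 °C were diluted to 5 × 10^5 CFU/mL in log phase and incubated 18 h at 37 °C with 2-fold peptide dilutions, with absorbance read at 550 nm. MIC was the lowest concentration preventing growth. For MBC, clear wells were plated on Mueller Hinton agar overnight, and MBC was the lowest concentration giving no colonies.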

[2] = tested on: MRSA (NCTC 12493); test: microbe, parasite or virus in culture; assay type: cell-based; conditions: MRSA (NCTC 12493)
In short: as §1

[3] = tested on: S. aureus (NCTC 10788); test: microbe, parasite or virus in culture; assay type: cell-based; conditions: NCTC 10788, 18 h
In short: as §1

[4] = tested on: E. coli (ATCC 8739); assay type: cell-based; conditions: ATCC 8739, 18 h
In short: as §1

[5] = tested on: K. pneumoniae (ATCC 43816); assay type: cell-based; conditions: ATCC 43816, 18 h
In short: as §1

[6] = tested on: P. aeruginosa (ATCC 9027); assay type: cell-based; conditions: ATCC 9027, 18 h
In short: as §1

[7] = tested on: S. aureus (NCTC 10788); assay type: cell-based, Staphylococcus aureus
In short: (§2)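 Bacteria diluted to 5 × 10^5 CFU/mL; MBIC from peptide co-incubated with suspension 16-20 h at 37 °C. For MBEC, overnight biofilms at 37 °C were PBS-rinsed, exposed to peptide (512 μM to 1 μM) for 24 h, methanol-fixed, crystal violet-stained, dissolved in 30% acetic acid, read at 595 nm.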

[8] = tested on: E. coli (ATCC 8739); assay type: cell-based, Escherichia coli
In short: as §2

[9] = tested on: MRSA (NCTC 12493); assay type: cell-based, methicillin-resistant Staphylococcus aureus; conditions: NCTC 12493
In short: as §2

[10] = tested on: K. pneumoniae (ATCC 43816); assay type: cell-based, Klebsiella pneumoniae
In short: as §2

[11] = tested on: E. faecium (NTCC 12697); assay type: cell-based
In short: as §2

[12] = tested on: P. aeruginosa (ATCC 9027); assay type: cell-based, Pseudomonas aeruginosa
In short: as §2

[13] = tested on: Galleria mellonella larvae; test: Toxicity in waxworms with no MRSA treatment; assay type: in vivo; conditions: 10 mg/kg
[14] = tested on: H838; assay type: cell-based, human; conditions: 24 h
In short: (§3)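 Human cancer cells at 8000/well were exposed to peptides at 10^−4 to 10^−9 M in serum-free medium for 24 h at 37 °C. Viability was measured by MTT (2 h), with formazan dissolved in DMSO and absorbance read at 550 nm.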

[15] = tested on: HCT116; assay type: cell-based, human; conditions: 24 h
In short: as §3

[16] = tested on: MCF-7; assay type: cell-based, human; conditions: 24 h
In short: as §3

[17] = tested on: PC-3; assay type: cell-based, human; conditions: 24 h
In short: as §3

[18] = tested on: U251MG; assay type: cell-based, human; conditions: 24 h
In short: as §3

[19] = tested on: five human cancer cell lines; assay type: cell-based; conditions: 24 h
Procedure: Five human cancer cell lines of non-small-cell lung cancer H838, human prostate carcinoma PC-3, human neuronal glioblastoma U251MG, human breast cancer cell MCF-7, and colorectal carcinoma HCT116 were used to detect the antiproliferative abilities of R2AW and its five analogues. According to the procedures in a previous article, cells (8000 cells/well) were seeded into the 96-well tissue culture plates and incubated at 37 °C with 5% CO2 overnight. The solutions of R2AW and its analogues at concentrations of 10^−4 M to 10^−9 M were prepared in the serum-free medium. Next, cells in each well were treated with 100 μL of each peptide solution for 24 h. Subsequently, 10 μL of 5 mg/mL MTT (3-(4, 5-Dimethylthiazol-2-yl-)-2, 5-Diphehyltetrazolium Bromide) was added to each well followed by 37 °C incubation for 2 h. After that, the liquid in each well was removed and 100 μL of DMSO was added to dissolve the purple formazan. The plate was placed on a shaking incubator for 10 min, and the absorbance was detected at 550 nm using a Synergy HT plate reader (Biotech, Minneapolis, MN, USA).

`CSCC[C@H](NC(=O)[C@H](Cc1ccccc1)NC(=O)CN)C(=O)N[C@@H](CCCCN)C(=O)N[C@H](C(=O)N[C@@H](C)C(=O)N[C@@H](CCCCN)C(=O)N[C@@H](CC(N)=O)C(=O)N[C@H](C(=O)N[C@@H](C)C(=O)N[C@@H](CCCCN)C(=O)N[C@@H](CC(N)=O)C(=O)N[C@H](C(=O)N[C@@H](C)C(=O)N[C@@H](C)C(=O)N[C@H](C(=O)N[C@@H](CC(C)C)C(=O)N[C@@H](CC(C)C)C(=O)N[C@@H](CCCCN)C(=O)N[C@@H](CC(C)C)C(=O)N[C@@H](CC(C)C)C(=O)N[C@@H](CCCCN)C(N)=O)[C@@H](C)O)C(C)C)C(C)C)[C@@H](C)O` [[Lys^4,19, Leu^20]R2AW(1-22)-NH2] (H-GFMKTAKNVAKNVAATLLKLLK-NH2) was tested, and the MBC [1] was 18.9 µg/mL, the MIC [1] was 9.4 µg/mL and the MBC [2] was 4.7 µg/mL. The MIC [2] was 4.7 µg/mL, the MBC [3] was 4.7 µg/mL and the MIC [3] was 4.7 µg/mL. It also gave an MBC [4] of 9.4 µg/mL, an MIC [4] of 4.7 µg/mL and an MBC [5] of 18.9 µg/mL. The MIC [5] was 9.4 µg/mL, the MBC [6] was 37.7 µg/mL and the MIC [6] was 18.9 µg/mL. It also gave an MBEC [7] of 256 µM, an MBIC [7] of 4 µM and an MBEC [8] of 256 µM. The MBIC [8] was 4 µM, the MBEC [9] was greater than 512 µM and the MBIC [9] was 4 µM. It also gave an MBEC [10] of 256 µM, an MBIC [10] of 8 µM and an MBEC [11] greater than 512 µM. For the same molecule, the MBIC [11] was 8 µM, the MBEC [12] was 512 µM and the MBIC [12] was 16 µM. For the same molecule, the “death of larvae with no MRSA treatment” value [13] was “no death”, the IC50 [14] was 7.83 µM and the IC50 [15] was 9.28 µM. The IC50 [16] was 10.6 µM, the IC50 [17] was 3.67 µM and the IC50 [18] was 12.4 µM. It also gave an IC50 [19] of 3.67 to 12 µM.

Reference: PMC10812557, “Progressive Design of a Ranatuerin-2 Peptide from Amolops wuyiensis: Enhancement of Bioactivity and In Vivo Efficacy” (Antibiotics, 2023)
